Experimental data: patent US8614236B2 (University of Washington, priority 2006, dated 2013)

What was measured:
Beagle dogs = details: iv 10 mg·kg^−1·h^−1; Höhne 2004; cited from earlier work
unanesthetized dogs = test: Effect of inhaled acetazolamide in unanesthetized dogs during hypoxia (vs iv and oral); format: in vivo, dog
[1] = inhaled 750 mg after 1 h of normoxia, hypoxia 2nd h
[2] = inhaled 750 mg after 1 h of normoxia, hypoxia 3rd h
[3] = inhaled 750 mg after 1 h of normoxia, normoxia 1st h
[4] = iv 2 mg/kg bolus + 2 mg/kg/h, hypoxia 2nd h
[5] = iv 2 mg/kg bolus + 2 mg/kg/h, hypoxia 3rd h
[6] = iv 2 mg/kg bolus + 2 mg/kg/h, normoxia 1st h
[7] = oral 5 mg/kg -12 h and -1 h, hypoxia 2nd h
[8] = oral 5 mg/kg -12 h and -1 h, hypoxia 3rd h
[9] = oral 5 mg/kg -12 h and -1 h, normoxia 1st h

CC(=O)Nc1nnc(S(N)(=O)=O)s1 [AZ, acetazolamide]
effect on HPV in conscious dogs (Beagle dogs): totally abolished | BEa (unanesthetized dogs; [1]): -5.2 ± 0.6 mM | CO (unanesthetized dogs; [1]): 2.3 ± 0.2 L/min | CVP (unanesthetized dogs; [1]): 2.5 ± 0.3 cmH2O | GFR (unanesthetized dogs; [1]): 3.7 ± 0.3 mL·min | HCO3a (unanesthetized dogs; [1]): 17.1 ± 0.6 mM | HR (unanesthetized dogs; [1]): 86 ± 6 beats/min | MAP (unanesthetized dogs; [1]): 105 ± 5 mmHg | MPAP (unanesthetized dogs; [1]): 15 ± 1 mmHg | PCWP (unanesthetized dogs; [1]): 3.9 ± 0.4 cmH2O | PVR (unanesthetized dogs; [1]): 395 ± 29 dyn s^−1 cm | PaCO2 (unanesthetized dogs; [1]): 26 ± 1 Torr | PaO2 (unanesthetized dogs; [1]): 39 ± 1 Torr | UNaV (unanesthetized dogs; [1]): 8.0 ± 1.3 µmol·min | UV (unanesthetized dogs; [1]): 99 ± 16 μ min^−1 kg^−1 | VE (unanesthetized dogs; [1]): 5.5 ± 0.5 L/min | BEa (unanesthetized dogs; [2]): -5.7 ± 0.7 mM | CO (unanesthetized dogs; [2]): 2.5 ± 0.1 L/min | CVP (unanesthetized dogs; [2]): 2.1 ± 0.2 cmH2O | GFR (unanesthetized dogs; [2]): 3.6 ± 0.3 mL·min | HCO3a (unanesthetized dogs; [2]): 16.4 ± 0.5 mM | HR (unanesthetized dogs; [2]): 100 ± 8 beats/min | MAP (unanesthetized dogs; [2]): 105 ± 5 mmHg | MPAP (unanesthetized dogs; [2]): 15 ± 1 mmHg | PCWP (unanesthetized dogs; [2]): 3.6 ± 0.2 cmH2O | PVR (unanesthetized dogs; [2]): 388 ± 30 dyn s^−1 cm | PaCO2 (unanesthetized dogs; [2]): 25 ± 1 Torr | PaO2 (unanesthetized dogs; [2]): 36 ± 1 Torr | UNaV (unanesthetized dogs; [2]): 5.1 ± 0.7 µmol·min | UV (unanesthetized dogs; [2]): 81 ± 15 μ min^−1 kg^−1 | VE (unanesthetized dogs; [2]): 5.7 ± 0.4 L/min | BEa (unanesthetized dogs; [3]): -3.9 ± 0.6 mM | CO (unanesthetized dogs; [3]): 2.5 ± 0.1 L/min | CVP (unanesthetized dogs; [3]): 2.8 ± 0.3 cmH2O | GFR (unanesthetized dogs; [3]): 4.0 ± 0.4 mL·min | HCO3a (unanesthetized dogs; [3]): 20.2 ± 0.5 mM | HR (unanesthetized dogs; [3]): 85 ± 5 beats/min | MAP (unanesthetized dogs; [3]): 92 ± 4 mmHg | MPAP (unanesthetized dogs; [3]): 13 ± 1 mmHg | PCWP (unanesthetized dogs; [3]): 4.3 ± 0.4 cmH2O | PVR (unanesthetized dogs; [3]): 298 ± 21 dyn s^−1 cm | PaCO2 (unanesthetized dogs; [3]): 36 ± 1 Torr | PaO2 (unanesthetized dogs; [3]): 101 ± 2 Torr | UNaV (unanesthetized dogs; [3]): 0.4 ± 0.1 µmol·min | UV (unanesthetized dogs; [3]): 33 ± 8 μ min^−1 kg^−1 | VE (unanesthetized dogs; [3]): 3.2 ± 0.2 L/min | pulmonary vascular response to hypoxia (unanesthetized dogs; inhaled, 12% oxygen for two hours): successful in reducing | BEa (unanesthetized dogs; [4]): -4.6 ± 0.4 mM | CO (unanesthetized dogs; [4]): 3.0 ± 0.4 L/min | CVP (unanesthetized dogs; [4]): 2.2 ± 0.3 cmH2O | GFR (unanesthetized dogs; [4]): 3.4 ± 0.3 mL·min | HCO3a (unanesthetized dogs; [4]): 18.5 ± 0.5 mM | HR (unanesthetized dogs; [4]): 103 ± 6 beats/min | MAP (unanesthetized dogs; [4]): 102 ± 8 mmHg | MPAP (unanesthetized dogs; [4]): 15 ± 1 mmHg | PCWP (unanesthetized dogs; [4]): 3.5 ± 0.3 cmH2O | PVR (unanesthetized dogs; [4]): 312 ± 36 dyn s^−1 cm | PaCO2 (unanesthetized dogs; [4]): 30 ± 1 Torr | PaO2 (unanesthetized dogs; [4]): 37 ± 1 Torr | UNaV (unanesthetized dogs; [4]): 4.0 ± 0.6 µmol·min | UV (unanesthetized dogs; [4]): 135 ± 27 μ min^−1 kg^−1 | VE (unanesthetized dogs; [4]): 6.5 ± 0.5 L/min | BEa (unanesthetized dogs; [5]): -6.1 ± 0.6 mM | CO (unanesthetized dogs; [5]): 2.9 ± 0.5 L/min | CVP (unanesthetized dogs; [5]): 2.3 ± 0.4 cmH2O | GFR (unanesthetized dogs; [5]): 3.8 ± 0.3 mL·min | HCO3a (unanesthetized dogs; [5]): 17.1 ± 0.5 mM | HR (unanesthetized dogs; [5]): 106 ± 7 beats/min | MAP (unanesthetized dogs; [5]): 103 ± 7 mmHg | MPAP (unanesthetized dogs; [5]): 14 ± 1 mmHg | PCWP (unanesthetized dogs; [5]): 3.7 ± 0.3 cmH2O | PVR (unanesthetized dogs; [5]): 305 ± 26 dyn s^−1 cm | PaCO2 (unanesthetized dogs; [5]): 27 ± 1 Torr | PaO2 (unanesthetized dogs; [5]): 38 ± 1 Torr | UNaV (unanesthetized dogs; [5]): 5.4 ± 1.2 µmol·min | UV (unanesthetized dogs; [5]): 68 ± 12 μ min^−1 kg^−1 | VE (unanesthetized dogs; [5]): 6.9 ± 0.5 L/min | BEa (unanesthetized dogs; [6]): -4.0 ± 0.5 mM | CO (unanesthetized dogs; [6]): 2.6 ± 0.2 L/min | CVP (unanesthetized dogs; [6]): 1.8 ± 0.3 cmH2O | GFR (unanesthetized dogs; [6]): 3.5 ± 0.3 mL·min | HCO3a (unanesthetized dogs; [6]): 20.2 ± 0.4 mM | HR (unanesthetized dogs; [6]): 74 ± 4 beats/min | MAP (unanesthetized dogs; [6]): 95 ± 5 mmHg | MPAP (unanesthetized dogs; [6]): 13 ± 1 mmHg | PCWP (unanesthetized dogs; [6]): 3.8 ± 0.5 cmH2O | PVR (unanesthetized dogs; [6]): 283 ± 37 dyn s^−1 cm | PaCO2 (unanesthetized dogs; [6]): 34 ± 1 Torr | PaO2 (unanesthetized dogs; [6]): 107 ± 3 Torr | UNaV (unanesthetized dogs; [6]): 3.8 ± 0.6 µmol·min | UV (unanesthetized dogs; [6]): 102 ± 12 μ min^−1 kg^−1 | VE (unanesthetized dogs; [6]): 4.1 ± 0.4 L/min | BEa (unanesthetized dogs; [7]): -6.3 ± 0.6 mM | CO (unanesthetized dogs; [7]): 2.7 ± 0.2 L/min | CVP (unanesthetized dogs; [7]): 1.9 ± 0.2 cmH2O | GFR (unanesthetized dogs; [7]): 3.3 ± 0.2 mL·min | HCO3a (unanesthetized dogs; [7]): 16.7 ± 0.6 mM | HR (unanesthetized dogs; [7]): 109 ± 5 beats/min | MAP (unanesthetized dogs; [7]): 106 ± 6 mmHg | MPAP (unanesthetized dogs; [7]): 17 ± 1 mmHg | PCWP (unanesthetized dogs; [7]): 3.5 ± 0.3 cmH2O | PVR (unanesthetized dogs; [7]): 375 ± 33 dyn s^−1 cm | PaCO2 (unanesthetized dogs; [7]): 28 ± 1 Torr | PaO2 (unanesthetized dogs; [7]): 37 ± 1 Torr | UNaV (unanesthetized dogs; [7]): 1.7 ± 0.5 µmol·min | UV (unanesthetized dogs; [7]): 84 ± 15 μ min^−1 kg^−1 | VE (unanesthetized dogs; [7]): 6.6 ± 0.4 L/min | BEa (unanesthetized dogs; [8]): -6.4 ± 0.4 mM | CO (unanesthetized dogs; [8]): 2.3 ± 0.1 L/min | CVP (unanesthetized dogs; [8]): 1.9 ± 0.2 cmH2O | GFR (unanesthetized dogs; [8]): 3.3 ± 0.2 mL·min | HCO3a (unanesthetized dogs; [8]): 16.1 ± 0.4 mM | HR (unanesthetized dogs; [8]): 102 ± 7 beats/min | MAP (unanesthetized dogs; [8]): 107 ± 6 mmHg | MPAP (unanesthetized dogs; [8]): 17 ± 1 mmHg | PCWP (unanesthetized dogs; [8]): 3.5 ± 0.3 cmH2O | PVR (unanesthetized dogs; [8]): 431 ± 45 dyn s^−1 cm | PaCO2 (unanesthetized dogs; [8]): 26 ± 1 Torr | PaO2 (unanesthetized dogs; [8]): 37 ± 1 Torr | UNaV (unanesthetized dogs; [8]): 1.5 ± 0.4 µmol·min | UV (unanesthetized dogs; [8]): 55 ± 8 μ min^−1 kg^−1 | VE (unanesthetized dogs; [8]): 6.3 ± 0.2 L/min | BEa (unanesthetized dogs; [9]): -6.5 ± 0.3 mM | CO (unanesthetized dogs; [9]): 2.3 ± 0.2 L/min | CVP (unanesthetized dogs; [9]): 2.3 ± 0.3 cmH2O | GFR (unanesthetized dogs; [9]): 3.0 ± 0.2 mL·min | HCO3a (unanesthetized dogs; [9]): 17.6 ± 0.3 mM | HR (unanesthetized dogs; [9]): 85 ± 3 beats/min | MAP (unanesthetized dogs; [9]): 95 ± 3 mmHg | MPAP (unanesthetized dogs; [9]): 12 ± 1 mmHg | PCWP (unanesthetized dogs; [9]): 3.9 ± 0.3 cmH2O | PVR (unanesthetized dogs; [9]): 298 ± 27 dyn s^−1 cm | PaCO2 (unanesthetized dogs; [9]): 32 ± 1 Torr | PaO2 (unanesthetized dogs; [9]): 108 ± 2 Torr | UNaV (unanesthetized dogs; [9]): 1.4 ± 0.6 µmol·min | UV (unanesthetized dogs; [9]): 50 ± 9 μ min^−1 kg^−1 | VE (unanesthetized dogs; [9]): 4.6 ± 0.3 L/min
